Reference: patent US6362369B1, “Phthalic acid diamide derivatives fluorine-containing aniline compounds as starting material, agricultural and horticultural insecticides, and a method for application of the insecticides” (Nihon Nohyaku Co., Ltd., priority 1997, dated 2002)

How the values were obtained:
[1] = tested on: rice leafroller (Cnaphalocrocis medinalis); assay: Insecticidal effect on rice leafroller (Test Example 3); assay type: in vivo; conditions: 500 ppm, 25° C., humidity 70%; for Insecticidal effect (Test Example 3), judged from mortality / Insecticidal effect on rice leafroller (Test Example 3), judged grade: rice lamina dip; for Insecticidal effect (Test Example 3), judged from mortality: 4 days after inoculation; for Insecticidal effect, Test Example 3: rice lamina immersed; for Insecticidal effect, Test Example 3 / Insecticidal effect on rice leafroller (Test Example 3), judged grade: four days after inoculation; for Insecticidal effect on rice leafroller (Test Example 3), judged grade: third-instar larvae
Description: Insecticidal effect on rice leafroller (Cnaphalocrocis medinalis)
After air-drying, the lamina was placed in a plastic Petri dish with a diameter of 9 cm whose bottom had been covered with a wetted filter paper. The lamina was inoculated with third-instar larvae of rice leafroller, after which the dish was allowed to stand in a room thermostated at 25° C. and having a humidity of 70%. Four days after the inoculation, the dead and alive were counted and the insecticidal effect was judged according to the criterion shown in Test Example 1. The test was carried out with triplicate groups of 10 insects.

[2] = tested on: diamondback moth (Plutella xylostella); assay: Insecticidal effect on diamondback moth (Test Example 1); assay type: in vivo; conditions: for Insecticidal effect (Test Example 1), judged from mortality / Insecticidal effect, Test Example 1: diamondback moth; for Insecticidal effect (Test Example 1), judged from mortality: judged by the criterion of Test Example 1; for Insecticidal effect on diamondback moth (Test Example 1), judged grade: mortality judged according to the criterion shown in Test Example 1
Procedure, shortened: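 Triplicate groups of 10 insects: eggs laid on Chinese cabbage seedling by adults, seedling immersed then air-dried, kept at 25° C. Day-6 hatch counts gave mortality, rated by criterion.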

[3] = third-instar larvae of rice leafroller
[4] = judged by the mortality criterion of Test Example 1
[5] = rice leafroller third-instar larvae
[6] = mortality judged by criterion of Test Example 1

CCCN(CC)C(=O)c1c(I)cccc1C(=O)Nc1ccc(OC(F)F)cc1C [compound 1575]
Insecticidal effect (Test Example 3), judged from mortality [1, 3]: A (100) | Insecticidal effect (Test Example 1), judged from mortality [2]: A (100)

CC(C)NC(=O)c1c(I)cccc1C(=O)Nc1ccc2c(c1Cl)OC(F)(F)C(F)(F)O2 [compound 1626]
Insecticidal effect (Test Example 3), judged from mortality [1, 3]: A (100) | Insecticidal effect (Test Example 1), judged from mortality [2]: A (100)

Cc1cc(OC(F)(F)C(F)F)ccc1NC(=O)c1c(Br)cccc1C(=O)NC(C)C [compound 330]
Insecticidal effect, Test Example 3 [1, 3]: A (100) | Insecticidal effect, Test Example 1 [2, 4]: A (100)

Cc1ccc(NC(=O)c2c(Br)cccc2C(=O)NC(C)C)c(C)c1OC(F)F [compound 320]
Insecticidal effect, Test Example 3 [1, 3]: D (79-50) | Insecticidal effect, Test Example 1 [2, 4]: A (100)

COc1ccc(NC(=O)c2cccc([N+](=O)[O-])c2C(=O)NC(C)C)c(C)c1 [compound 688]
Insecticidal effect on rice leafroller (Test Example 3), judged grade [1]: A (100) | Insecticidal effect on diamondback moth (Test Example 1), judged grade [2]: A (100)

CCC(C)CNC(=O)c1c(I)cccc1C(=O)Nc1ccc(C(F)(F)C(F)(F)F)cc1C (centres unmarked) [compound 1026]
Insecticidal effect, Test Example 3 [1, 5]: A (100) | Insecticidal effect, Test Example 1 [2, 6]: A (100)

CC(C)NC(=O)c1c(Br)cccc1C(=O)Nc1ccc2c(c1)OCO2 [compound 300]
Insecticidal effect, Test Example 3 [1, 3]: A (100) | Insecticidal effect, Test Example 1 [2, 4]: A (100)

CC(C)NC(=O)c1cccc(I)c1C(=O)Nc1ccc(Br)cc1 [compound 412]
Insecticidal effect, Test Example 3 [1, 3]: C (89-80) | Insecticidal effect, Test Example 1 [2, 4]: A (100)

CC(C)NC(=O)c1c(I)cccc1C(=O)Nc1ccc(Br)cc1C(F)(F)C(F)(F)F [compound 1409]
Insecticidal effect, Test Example 3 [1, 5]: A (100) | Insecticidal effect, Test Example 1 [2, 6]: A (100)

CCN(Cc1ccccc1)C(=O)c1c(Cl)cccc1C(=O)Nc1ccc(C(F)(F)C(F)(F)F)cc1C [compound 1457]
Insecticidal effect (Test Example 3), judged from mortality [1, 3]: A (100) | Insecticidal effect (Test Example 1), judged from mortality [2]: A (100)

CC(C)NC(=O)c1cccc(Cl)c1C(=O)Nc1ccc(F)cc1F [compound 210]
Insecticidal effect, Test Example 3 [1, 3]: D (79-50) | Insecticidal effect, Test Example 1 [2, 4]: A (100)

Cc1cc(C(F)(F)C(F)(F)F)ccc1NC(=O)c1c(Cl)cccc1C(=O)NC1CCCO1 (centres unmarked) [compound 1393]
Insecticidal effect, Test Example 3 [1, 5]: A (100) | Insecticidal effect, Test Example 1 [2, 6]: A (100)

Cc1cc(OC(F)(F)F)ccc1NC(=O)c1cccc(I)c1C(=O)NCCc1cccnc1 [compound 1772]
Insecticidal effect (Test Example 3), judged from mortality [1, 3]: A (100) | Insecticidal effect (Test Example 1), judged from mortality [2]: A (100)

CC(C)NC(=O)c1ccccc1C(=O)Nc1ccc([S+]([O-])C(F)(F)F)cc1 (centres unmarked) [compound 999]
Insecticidal effect, Test Example 3 [1, 5]: A (100) | Insecticidal effect, Test Example 1 [2, 6]: A (100)

COc1cccc(C(=O)NC(C)C)c1C(=O)Nc1ccc(OC(F)(F)F)cc1 [compound 769]
Insecticidal effect on rice leafroller (Test Example 3), judged grade [1]: D (79-50) | Insecticidal effect on diamondback moth (Test Example 1), judged grade [2]: A (100)

Cc1cc(Oc2cccc(C(F)(F)F)c2)ccc1NC(=O)c1cccc([N+](=O)[O-])c1C(=O)NC(C)C [compound 724]
Insecticidal effect on rice leafroller (Test Example 3), judged grade [1]: B (99-90) | Insecticidal effect on diamondback moth (Test Example 1), judged grade [2]: A (100)

COc1cc(NC(=O)c2c(I)cccc2C(=O)NC(C)C)ccc1OC(F)F [compound 450]
Insecticidal effect on rice leafroller (Test Example 3), judged grade [1]: C (89-80) | Insecticidal effect on diamondback moth (Test Example 1), judged grade [2]: A (100)

Cc1ccc(Cl)cc1NC(=O)c1ccc(F)cc1C(=O)NC(C)C [compound 530]
Insecticidal effect on rice leafroller (Test Example 3), judged grade [1]: D (79-50) | Insecticidal effect on diamondback moth (Test Example 1), judged grade [2]: A (100)

CC(C)NC(=O)c1cc(Cl)ccc1C(=O)Nc1cccc(C(F)(F)F)c1 [compound 171]
Insecticidal effect, Test Example 3 [1, 3]: D (79-50) | Insecticidal effect, Test Example 1 [2, 4]: A (100)

Cc1ccc(Cl)cc1NC(=O)c1cc2ccccc2cc1C(=O)NC(C)C [compound 822]
Insecticidal effect on rice leafroller (Test Example 3), judged grade [1]: D (79-50) | Insecticidal effect on diamondback moth (Test Example 1), judged grade [2]: D (79-50)

Cc1cc(OC(F)(F)F)ccc1NC(=O)c1c(F)cccc1C(=O)NC(C)C [compound 564]
Insecticidal effect on rice leafroller (Test Example 3), judged grade [1]: B (99-90) | Insecticidal effect on diamondback moth (Test Example 1), judged grade [2]: A (100)

Cc1cc(Cl)ccc1NC(=O)c1cccc(OC(F)F)c1C(=O)NC(C)C [compound 772]
Insecticidal effect on rice leafroller (Test Example 3), judged grade [1]: A (100) | Insecticidal effect on diamondback moth (Test Example 1), judged grade [2]: A (100)

CC(C)NC(=O)c1ccccc1C(=O)Nc1cccc(C(F)(F)F)c1 [compound 26]
Insecticidal effect, Test Example 3 [1, 3]: D (79-50) | Insecticidal effect, Test Example 1 [2, 4]: A (100)

Cc1cc(CCC(C)(C)C)ccc1NC(=O)c1cccc(Cl)c1C(=O)NC(C)C [compound 1323]
Insecticidal effect, Test Example 3 [1, 5]: A (100) | Insecticidal effect, Test Example 1 [2, 6]: A (100)

Cc1cc(Br)ccc1NC(=O)c1cccc([S+](C)[O-])c1C(=O)NC(C)C (centres unmarked) [compound 790]
Insecticidal effect on rice leafroller (Test Example 3), judged grade [1]: A (100)

CC(C)NC(=O)c1cccc(F)c1C(=O)Nc1ccc(C(F)(F)C(F)(F)C(F)(F)C(F)(F)F)cc1 [compound 536]
Insecticidal effect on rice leafroller (Test Example 3), judged grade [1]: A (100)

Cc1cc(OC(F)F)ccc1NC(=O)c1cccc(I)c1C(=O)NCc1ccccc1Cl [compound 1432]
Insecticidal effect, Test Example 3 [1, 5]: A (100)

Cc1cc(Cl)ccc1NC(=O)c1cccc(C(F)(F)F)c1C(=O)NC(C)C [compound 758]
Insecticidal effect on rice leafroller (Test Example 3), judged grade [1]: A (100)

CCC(C)CNC(=O)c1cccc(I)c1C(=O)Nc1ccc(C(F)(F)C(F)(F)F)cc1C (centres unmarked) [compound 1027]
Insecticidal effect, Test Example 3 [1, 5]: A (100)

COC(=O)c1ccc(NC(=O)c2ccccc2C(=O)NC(C)C)c(C)c1 [compound 71]
Insecticidal effect, Test Example 3 [1, 3]: D (79-50)

CCOP(=O)(OCC)c1ccc(NC(=O)c2ccccc2C(=O)NC(C)C)c(C)c1 [compound 81]
Insecticidal effect, Test Example 3 [1, 3]: A (100)

Cc1cc(C(F)(F)C(F)(F)F)ccc1NC(=O)c1c(Cl)cccc1C(=O)NCc1ccc(Cl)cc1Cl [compound 1350]
Insecticidal effect, Test Example 3 [1, 5]: A (100)

CCCCCCNC(=O)c1cccc(I)c1C(=O)Nc1ccc(C(F)(F)C(F)(F)F)cc1C [compound 950]
Insecticidal effect, Test Example 3 [1, 5]: C (89-80)

CCN(CC)C(=O)c1cccc([N+](=O)[O-])c1C(=O)Nc1ccc(Cl)cc1C [compound 1138]
Insecticidal effect, Test Example 3 [1, 5]: A (100)

Cc1cc(C(F)(F)C(F)(F)F)ccc1NC(=O)c1cc(Cl)cc(Cl)c1C(=O)NC(C)C [compound 1225]
Insecticidal effect, Test Example 3 [1, 5]: A (100)

Cc1ccc(C#CC(C)(C)NC(=O)c2c(Cl)cccc2C(=O)Nc2ccc(C(F)(F)C(F)(F)F)cc2C)cc1 [compound 1570]
Insecticidal effect (Test Example 3), judged from mortality [1, 3]: A (100)

Cc1cc(C(F)(F)C(F)(F)F)ccc1NC(=O)c1c(I)cccc1C(=O)N(C(C)C)C(C)C [compound 1072]
Insecticidal effect, Test Example 3 [1, 5]: A (100)

Cc1cc(C#CC(C)(C)C)ccc1NC(=O)c1c(I)cccc1C(=O)NC(C)C [compound 1306]
Insecticidal effect, Test Example 3 [1, 5]: A (100)

Cc1cc(OC(F)(F)F)ccc1NC(=O)c1c(I)cccc1C(=O)NC(C)(C)CO [compound 1520]
Insecticidal effect (Test Example 3), judged from mortality [1, 3]: A (100)

CCCCc1ccc(NC(=O)c2cccc([N+](=O)[O-])c2C(=O)NC(C)C)cc1 [compound 605]
Insecticidal effect on rice leafroller (Test Example 3), judged grade [1]: C (89-80)

Cc1cc(C(F)(C(F)(F)F)C(F)(F)F)ccc1NC(=O)c1cc(Cl)cc(Cl)c1C(=O)NC(C)C [compound 1226]
Insecticidal effect, Test Example 3 [1, 5]: A (100)

Cc1cc(OC(F)F)ccc1NC(=O)c1c(C(=O)NC(C)C)cccc1[S+]([O-])CC(F)(F)F (centres unmarked) [compound 800]
Insecticidal effect on rice leafroller (Test Example 3), judged grade [1]: C (89-80)

Cc1cc(C(F)(F)C(F)(F)F)c(C)cc1NC(=O)c1cccc(I)c1C(=O)NC(C)C [compound 1655]
Insecticidal effect (Test Example 3), judged from mortality [1, 3]: A (100)

CC(C)NC(=O)c1c(C(=O)Nc2cccc3c2CCC3)cccc1[N+](=O)[O-] [compound 735]
Insecticidal effect on rice leafroller (Test Example 3), judged grade [1]: D (79-50)

CC(C)NC(=O)c1c(I)cccc1C(=O)Nc1ccc(C(F)(F)F)cc1 [compound 349]
Insecticidal effect, Test Example 3 [1, 3]: A (100)

CC(C)NC(=O)c1c(I)cccc1C(=O)Nc1ccc(OC(F)(F)F)cc1 [compound 352]
Insecticidal effect, Test Example 3 [1, 3]: A (100)

Cc1cc(C(F)(F)C(F)(F)F)ccc1NC(=O)c1c(Cl)cccc1C(=O)NC(C)(C)C#Cc1ccccc1 [compound 1480]
Insecticidal effect (Test Example 3), judged from mortality [1, 3]: A (100)
